Laboratory results taken from US20170001990A1 (Genentech, Inc., priority 2014, published 2017).
Where “and” joins values, the source holds several entries; their conditions need not be identical. Identical values can stand only once.

Biological target: Human recombinant carboxy-terminal his-tagged LDHA (amino acids 2-332) (Homo sapiens, UniProt P00338)
Experiment: LDHA enzyme inhibition assay (NADH fluorescence)
Details: LDHA IC50 (μM), 1 nM LDHA, NADH and pyruvate, stereochemistry of tested sample given

Going from `O=C1CC(c2ccsc2)(c2cccc(OCCCC(F)(F)F)n2)NC(=O)C1Sc1ccccc1Cl` (single isomer, unassigned) [Example 121, 3-(2-chlorophenyl)sulfanyl-6-(3-thienyl)-6-[6-(4,4,4-trifluorobutoxy)-2-pyridyl]piperidine-2,4-dione] to `CC(C)(O)CCOc1cccc(C2(c3ccsc3)CC(=O)C(Sc3ccccc3Cl)C(=O)N2)n1` (single isomer, unassigned) [Example 155, 3-(2-chlorophenyl)sulfanyl-6-[6-(3-hydroxy-3-methyl-butoxy)-2-pyridyl]-6-(3-thienyl)piperidine-2,4-dione], the IC50 rises from 0.008 µM to 0.025 µM (3.1-fold). The first is the more potent here.

`CN1C(=O)C(Sc2ccccc2Cl)C(=O)CC1(c1ccsc1)c1cccc(OC2CCOCC2)c1` (centres unmarked) [Example 23, 3-(2-chlorophenyl)sulfanyl-1-methyl-6-(3-tetrahydropyran-4-yloxyphenyl)-6-(3-thienyl)piperidine-2,4-dione] and `O=C1CC(c2ccsc2)(c2cccc(OC3CCOC3)n2)NC(=O)C1Sc1ccccc1Cl` (centres unmarked) [Example 49, 3-((2-chlorophenyl)thio)-6-(6-((tetrahydrofuran-3-yl)oxy)pyridin-2-yl)-6-(thiophen-3-yl) piperidine-2,4-dione] are within 1.5-fold of each other in IC50: 0.026 µM for the first, 0.025 µM for the second.

Compared with `O=C1CC(c2ccsc2)(c2cccc(OCC3CCCC3)n2)NC(=O)C1Sc1ccccc1Cl` (single isomer, unassigned) [Example 243, 3-(2-chlorophenyl)sulfanyl-6-[6-(cyclopentylmethoxy)-2-pyridyl]-6-(3-thienyl) piperidine-2,4-dione], `O=C1CC(c2ccsc2)(c2cccc(OCC3COC3)n2)NC(=O)C1Sc1ccccc1Cl` (single isomer, unassigned) [Example 225, 3-(2-chlorophenyl)sulfanyl-6-[6-(oxetan-3-ylmethoxy)-2-pyridyl]-6-(3-thienyl) piperidine-2,4-dione] is 100-fold higher in IC50: 0.001 µM for the first, 0.103 µM for the second.

Compared with `O=C1CC(c2ccsc2)(c2cccc(N3CC(C4CCOCC4)C3)n2)NC(=O)C1Sc1ccccc1Cl` (centres unmarked) [Example 162, 3-(2-chlorophenyl)sulfanyl-6-[6-(3-tetrahydropyran-4-ylazetidin-1-yl)-2-pyridyl]-6-(3-thienyl) piperidine-2,4-dione], `O=C1CC(c2ccsc2)(c2cccc(OCC3CCCO3)n2)NC(=O)C1Sc1ccccc1Cl` (single isomer, unassigned) [Example 221, 3-(2-chlorophenyl)sulfanyl-6-[6-(tetrahydrofuran-2-ylmethoxy)-2-pyridyl]-6-(3-thienyl)piperidine-2,4-dione] is 80-fold higher in IC50: 0.004 µM for the first, 0.32 µM for the second. The first is the more potent here.

`COC(C)(C)CCOc1cccc(C2(c3ccsc3)CC(=O)C(Sc3ccccc3Cl)C(=O)N2)n1` (centres unmarked) [Example 249, 3-(2-chlorophenyl)sulfanyl-6-[6-(3-methoxy-3-methyl-butoxy)-2-pyridyl]-6-(3-thienyl)piperidine-2,4-dione] and `CC(C)CCOc1cccc(C2(c3ccsc3)CC(=O)C(Sc3ccccc3Cl)C(=O)N2)n1` (single isomer, unassigned) [Example 133, 3-(2-chlorophenyl)sulfanyl-6-(6-isopentyloxy-2-pyridyl)-6-(3-thienyl) piperidine-2,4-dione] are within 1.5-fold of each other in IC50: 0.099 µM for the first, 0.089 µM for the second.

Going from `CN(c1cccc(CO)c1)c1cccc(C2(c3ccsc3)CC(=O)C(Sc3ccccc3Cl)C(=O)N2)n1` (centres unmarked) [Example 309, 3-((2-chlorophenyl)thio)-6-(6-((3-(hydroxymethyl)phenyl)(methyl)amino)pyridin-2-yl)-6-(thiophen-3-yl)piperidine-2,4-dione] to `CN(c1ccc(F)cc1)c1cccc(C2(c3ccsc3)CC(=O)C(Sc3ccccc3Cl)C(=O)N2)n1` (single isomer, unassigned) [Example 266, 3-((2-chlorophenyl)thio)-6-(6-((4-fluorophenyl) (methyl)amino)pyridin-2-yl)-6-(thiophen-3-yl) piperidine-2,4-dione], the IC50 falls from 0.408 µM to 0.099 µM (4.1-fold). The second is the more potent here.

Compared with `O=C1CC(c2ccsc2)(c2cccc(Oc3cccc4cccnc34)n2)NC(=O)C1Sc1ccccc1Cl` (centres unmarked) [Example 100, 3-((2-chlorophenyl)thio)-6-(6-(quinolin-8-yloxy)pyridin-2-yl)-6-(thiophen-3-yl)piperidine-2,4-dione], `O=C1CC(c2ccsc2)(c2cccc(Oc3ccccn3)n2)NC(=O)C1Sc1ccccc1Cl` (centres unmarked) [Example 96, 3-(2-chlorophenyl)sulfanyl-6-[6-(2-pyridyloxy)-2-pyridyl]-6-(3-thienyl) piperidine-2,4-dione] is 2.4-fold lower in IC50: 0.046 µM for the first, 0.019 µM for the second.

Going from `O=C1CC(c2ccsc2)(c2cccc(Oc3ccc(F)c(F)c3)n2)NC(=O)C1Sc1ccccc1Cl` (single isomer, unassigned) [Example 78, 3-(2-chlorophenyl)sulfanyl-6-[6-(3,4-difluoro-phenoxy)-2-pyridyl]-6-(3-thienyl)piperidine-2,4-dione] to `O=C1CC(c2ccsc2)(c2cccc(Oc3cccc(C(F)F)c3)n2)NC(=O)C1Sc1ccccc1Cl` (single isomer, unassigned) [Example 136, 3-(2-chlorophenyl)sulfanyl-6-[6-[3-(difluoro-methyl)phenoxy]-2-pyridyl]-6-(3-thienyl) piperidine-2,4-dione], the IC50 rises from 0.023 µM to 0.222 µM (9.7-fold). The first is the more potent here.

Compared with `O=C1CC(c2ccsc2)(c2cccc(Oc3cc(F)cc(CO)c3)n2)NC(=O)C1Sc1ccccc1Cl` (single isomer, unassigned) [Example 216, 3-(2-chlorophenyl)sulfanyl-6-[6-[3-fluoro-5-(hydroxy-methyl)phenoxy]-2-pyridyl]-6-(3-thienyl)piperidine-2,4-dione], `COc1cc(F)cc(Cc2cccc(C3(c4ccsc4)CC(=O)C(Sc4ccccc4Cl)C(=O)N3)n2)c1` (centres unmarked) [Example 147, 3-((2-chlorophenyl)thio)-6-(6-(3-fluoro-5-methoxy-benzyl)pyridin-2-yl)-6-(thiophen-3-yl)piperidine-2,4-dione] is 4-fold higher in IC50: 0.002 µM for the first, 0.008 µM for the second.

Going from `O=C1CC(c2ccsc2)(c2cccc(Oc3ccc(F)c(F)c3)n2)NC(=O)C1Sc1ccccc1Cl` (single isomer, unassigned) [Example 77, 3-(2-chlorophenyl)sulfanyl-6-[6-(3,4-difluoro-phenoxy)-2-pyridyl]-6-(3-thienyl)piperidine-2,4-dione] to `COc1cccc(Oc2cccc(C3(c4ccsc4)CC(=O)C(Sc4ccccc4Cl)C(=O)N3)n2)c1` (centres unmarked) [Example 64, 3-(2-chlorophenyl)sulfanyl-6-[6-(3-methoxyphenoxy)-2-pyridyl]-6-(3-thienyl) piperidine-2,4-dione], the IC50 rises from 0.031 µM to 0.126 µM (4.1-fold).

First: O=C1CC(c2ccsc2)(c2cccc(OCC(F)F)n2)NC(=O)C1Sc1ccccc1Cl (single isomer, unassigned) [Example 223, 3-(2-chlorophenyl)sulfanyl-6-[6-(2,2-difluoroethoxy)-2-pyridyl]-6-(3-thienyl) piperidine-2,4-dione]
Second: O=C1C[C@@](c2ccsc2)(c2cccc(OCCC3CC3)n2)NC(=O)C1Sc1ccccc1Cl (stereo partly drawn) [Example 95, (6R)-3-((2-chlorophenyl)thio)-6-(6-(2-cyclo-propylethoxy)pyridin-2-yl)-6-(thiophen-3-yl) piperidine-2,4-dione]
The IC50 of the first is 5.1-fold lower: 0.057 µM for the first, 0.29 µM for the second. The first is the more potent here.

Compared with `COC1CCC(Oc2cccc(C3(c4ccsc4)CC(=O)C(Sc4ccccc4Cl)C(=O)N3)n2)CC1` (centres unmarked) [Example 320, 5-(2-chlorophenyl)sulfanyl-4-hydroxy-2-[6-(4-methoxycyclohexoxyl)-2-pyridyl]-2-(3-thienyl)-1,3-dihydropyridin-6-one], `CC(CC1CC1)Oc1cccc(C2(c3ccsc3)CC(=O)C(Sc3ccccc3Cl)C(=O)N2)n1` (single isomer, unassigned) [Example 241, 3-(2-chlorophenyl)sulfanyl-6-[6-(2-cyclopropyl-1-methyl-ethoxy)-2-pyridyl]-6-(3-thienyl)piperidine-2,4-dione] is 31-fold lower in IC50: 0.093 µM for the first, 0.003 µM for the second.

Compared with `O=C1CC(c2ccsc2)(c2cccc(Cc3cc(F)cc(F)c3)n2)NC(=O)C1Sc1ccccc1Cl` (single isomer, unassigned) [Example 129, 3-((2-chlorophenyl)thio)-6-(6-(3,5-difluorobenzyl)pyridin-2-yl)-6-(thiophen-3-yl)piperidine-2,4-dione], `O=C1CC(c2ccsc2)(c2cccc(NCCC3CC3)n2)NC(=O)C1Sc1ccccc1Cl` (centres unmarked) [Example 131, 3-(2-chlorophenyl)sulfanyl-6-[6-(2-cyclopropyl-ethylamino)-2-pyridyl]-6-(3-thienyl)piperidine-2,4-dione] is 2.3-fold higher in IC50: 0.02 µM for the first, 0.046 µM for the second. The first is the more potent here.

Compared with `COCCCOc1ccc(C2(c3ccsc3)CC(=O)C(Sc3ccccc3Cl)C(=O)N2)cc1` (centres unmarked) [Example 31, 3-(2-chlorophenyl)sulfanyl-6-[4-(3-methoxypropoxy)phenyl]-6-(3-thienyl)piperidine-2,4-dione], `O=C(NCC1CC1)c1cccc(C2(c3ccsc3)CC(=O)C(Sc3ccccc3Cl)C(=O)N2)n1` (centres unmarked) [Example 242, 6-[5-(2-chlorophenyl)sulfanyl-4,6-dioxo-2-(3-thienyl)-2-piperidyl]-N-(cyclopropylmethyl) pyridine-2-carboxamide] is 2-fold lower in IC50: 0.008 µM for the first, 0.004 µM for the second. The second is the more potent here.

First: O=C1CC(c2ccsc2)(c2ccc(N3CCOCC3)c(F)c2)NC(=O)C1Sc1ccccc1Cl (centres unmarked) [Example 328, 3-(2-chlorophenyl)sulfanyl-6-(3-fluoro-4-morpholino-phenyl)-6-(3-thienyl)piperidine-2,4-dione]
Second: O=C1CC(c2ccsc2)(c2cccc(OCC3CCCO3)n2)NC(=O)C1Sc1ccccc1Cl (single isomer, unassigned) [Example 238, 3-(2-chlorophenyl)sulfanyl-6-[6-(tetrahydrofuran-2-ylmethoxy)-2-pyridyl]-6-(3-thienyl)piperidine-2,4-dione]
The IC50 of the first is 3-fold higher: 0.054 µM for the first, 0.018 µM for the second.

Compound `O=C1CC(c2ccsc2)(c2cccc(OCC3CCCO3)n2)NC(=O)C1Sc1ccccc1Cl` (single isomer, unassigned) [Example 195, 3-(2-chlorophenyl)sulfanyl-6-[6-(tetrahydrofuran-2-ylmethoxy)-2-pyridyl]-6-(3-thienyl)piperidine-2,4-dione] has an IC50 of 0.143 µM.

`O=C1CC(c2ccc(N3CCOCC3)cc2)(c2cccc(Nc3ccc(F)cc3)n2)NC(=O)C1Sc1ccccc1Cl` (centres unmarked) [Example 39, 3-((2-chlorophenyl)thio)-6-(6-((4-fluorophenyl)amino)pyridin-2-yl)-6-(4-morpholinophenyl)piperidine-2,4-dione] was tested, and the IC50 was 0.003 µM and 0.012 µM.
